The values below come from PMC7919492, “Synthesis of Rottlerone Analogues and Evaluation of Their α-Glucosidase and DPP-4 Dual Inhibitory and Glucose Consumption-Promoting Activity” (Molecules, 2021).

Assay [1] deals with T1, α-glucosidase from baker’s yeast (Saccharomyces cerevisiae, UniProt P53341).
T1 construct: purchased Sigma G5003
The assay can be described thus: biochemical. The assay is classed as biochemical. As to conditions: for fold higher α-glucosidase inhibitory activity than 3: compared with compound 3; for fold higher α-glucosidase inhibitory activity than 5a: compared with compound 5a. On the procedure: The commercially available α-glucosidase from baker’s yeast (Sigma, G5003) was selected as the target protein while using p-nitrophenyl-α-D-glucopyranoside (pNGP, Sigma, N1377) as the substrate. […] The enzyme and substrate were dissolved in potassium phosphate buffer (0.05 M, pH 6.8). The enzymatic reaction mixture that was composed of α-glucosidase (0.04 U, 20 μL), substrate (0.5 mM, 30 μL), test compounds (20 μL), and potassium phosphate buffer (130 μL) was incubated at 37 °C for 30 min. The enzymatic activity was detected by spectrophotometer at the wavelength of 405 nm. The results are the average of three independent experiments, each being performed in duplicate.

Assay [2] has as its target T2, DPP-4 (Homo sapiens, UniProt P27487).
T2 construct: purchased PROSPEC ENZ-375
The assay can be described thus: DPP-4 inhibition assay (glycyl proline p-nitroaniline substrate). The format is biochemical. The note with it: average of three independent experiments, each in duplicate; 37 °C, 30 min. On the procedure:
The enzyme and substrate were dissolved in Tris-HCl buffer (0.1 M, pH 8.0). The enzymatic reaction mixture that was composed of DPP-4 (0.01 U, 50 μL), substrate (2.2 mM, 50 μL), test compounds (10 μL), and Tris-HCl buffer (90 μL) was incubated at 37 °C for 30 min. […] The results are the average of three independent experiments, each being performed in duplicate.

Assay [3] concerns the target T3, α-glucosidase (Saccharomyces cerevisiae, UniProt P53341).
T3 construct: purchased Sigma G5003
The assay can be described thus: Kinetics of enzyme inhibition (velocity vs enzyme plots, Lineweaver-Burk). The format is biochemical, baker’s yeast. As to conditions: for reversibility of α-glucosidase inhibition: plots of velocity versus enzyme concentration at different inhibitor concentrations. On the procedure: The commercially available α-glucosidase from baker’s yeast (Sigma, G5003) was selected as the target protein while using p-nitrophenyl-α-D-glucopyranoside (pNGP, Sigma, N1377) as the substrate. The compounds and acarbose were dissolved in DMSO. The enzyme and substrate were dissolved in potassium phosphate buffer (0.05 M, pH 6.8). The enzymatic reaction mixture that was composed of α-glucosidase (0.04 U, 20 μL), substrate (0.5 mM, 30 μL), test compounds (20 μL), and potassium phosphate buffer (130 μL) was incubated at 37 °C for 30 min. The enzymatic activity was detected by spectrophotometer at the wavelength of 405 nm. The results are the average of three independent experiments, each being performed in duplicate.
The kinetics of enzyme inhibition was performed with the same assays detailed above, in the presence of different concentrations of compounds 4d and 5d, substrate, and enzyme, respectively. The inhibitory kinetics of 4d and 5d on α-glucosidase was analyzed using the Lineweaver-Burk plot of the substrate concentration and velocity.

The subject of assay [4] is HepG2 cells. In words: Glucose consumption assay in HepG2 cells. The format is cell-based, human. As to conditions: 24 h. On the procedure:
Briefly, the HepG2 cells were cultured in Dulbecco’s-modified Eagle’s medium (DMEM) containing 25 mmol/L D-glucose, 10% heat-inactivated fetal bovine serum (FBS), 10 U/mL penicillin, and […] streptomycin at 37 °C, 5% CO2 atmosphere. The culture solution was replaced every other day and then passaged once for 2–3 d. The cells were seeded into 96-well plate with twenty-four wells left as blanks. After reaching 70–80% confluence, the cells were washed with PBS twice and the medium was replaced by DMEM containing 25 mmol/L D-glucose to hunger for 24 h. The cells were washed with PBS twice and the medium was replaced by RPMI-1640 containing 11.1 mmol/L glucose that was supplemented with 0.2% bovine serum albumin (BSA). To the medium was then added 1 mmol/L metformin or purified product at different concentrations, and DMSO was used as the blank control. The glucose concentration in the medium […] 24 h treatment. Glucose consumption = glucose concentrations of blank wells − glucose concentrations of plated wells. The sulforhodamine B (SRB) assay was used to adjust the glucose consumption values. The SRB assay is based on the measurement of cellular protein content. […] Bound SRB was solubilized with 150 μL Tris-base (10 mmol/L, pH 10.5) solution for OD determination at 546 nm while using a microplate reader.

Where [5] appears, read: average of three independent experiments, each in duplicate, 37 °C, 30 min, read-out: IC50 α-Glucosidase.

The term IC50 denotes the midpoint of a concentration-inhibition curve.

“Also recorded” adds a separate entry of the source. Read-outs that look alike come from different tables or passages of the source. Bounds are passed on as bounds.

T2 sequence (P27487 whole entry): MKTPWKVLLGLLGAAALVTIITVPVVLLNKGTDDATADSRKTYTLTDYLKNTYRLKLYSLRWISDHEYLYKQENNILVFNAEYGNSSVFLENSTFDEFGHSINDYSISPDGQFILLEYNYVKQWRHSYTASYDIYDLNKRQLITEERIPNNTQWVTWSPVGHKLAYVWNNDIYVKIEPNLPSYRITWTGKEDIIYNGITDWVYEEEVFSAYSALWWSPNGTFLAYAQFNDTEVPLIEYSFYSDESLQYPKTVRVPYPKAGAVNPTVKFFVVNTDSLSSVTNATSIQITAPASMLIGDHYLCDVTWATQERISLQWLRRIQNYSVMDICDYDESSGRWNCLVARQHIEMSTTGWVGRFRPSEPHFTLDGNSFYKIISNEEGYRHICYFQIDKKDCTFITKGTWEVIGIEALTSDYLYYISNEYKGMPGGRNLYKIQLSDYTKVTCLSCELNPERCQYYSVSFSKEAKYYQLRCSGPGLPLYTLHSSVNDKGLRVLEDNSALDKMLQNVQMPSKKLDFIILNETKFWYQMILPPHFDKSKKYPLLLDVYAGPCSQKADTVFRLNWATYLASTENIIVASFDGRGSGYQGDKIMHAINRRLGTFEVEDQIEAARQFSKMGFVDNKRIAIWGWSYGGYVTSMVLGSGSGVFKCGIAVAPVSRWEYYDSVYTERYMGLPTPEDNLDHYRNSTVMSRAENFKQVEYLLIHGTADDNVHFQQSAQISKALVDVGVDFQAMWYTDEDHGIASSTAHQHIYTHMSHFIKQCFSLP
T1 sequence (P53341 whole entry): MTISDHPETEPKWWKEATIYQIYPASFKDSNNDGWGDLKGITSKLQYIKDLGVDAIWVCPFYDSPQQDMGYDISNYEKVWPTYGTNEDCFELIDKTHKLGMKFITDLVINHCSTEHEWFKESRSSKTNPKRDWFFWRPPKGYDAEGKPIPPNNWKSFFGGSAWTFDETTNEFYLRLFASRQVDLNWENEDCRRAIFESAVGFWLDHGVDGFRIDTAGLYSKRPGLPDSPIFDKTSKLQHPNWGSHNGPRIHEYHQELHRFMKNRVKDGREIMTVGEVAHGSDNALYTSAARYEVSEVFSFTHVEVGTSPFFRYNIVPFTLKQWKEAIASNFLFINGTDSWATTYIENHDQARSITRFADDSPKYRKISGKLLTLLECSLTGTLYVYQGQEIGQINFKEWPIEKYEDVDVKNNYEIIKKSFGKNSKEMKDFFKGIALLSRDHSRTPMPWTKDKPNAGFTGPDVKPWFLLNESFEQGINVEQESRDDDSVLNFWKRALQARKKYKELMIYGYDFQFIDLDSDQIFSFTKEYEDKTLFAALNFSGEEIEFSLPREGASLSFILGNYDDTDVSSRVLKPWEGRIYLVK
T3 sequence (P53341 whole entry): as above

Take `CC1(C)C=Cc2c(O)c(Cc3c(O)c4c(c(C(=O)C=Cc5ccccc5)c3O)OC(C)(C)C=C4)c(O)c(C(=O)C=Cc3ccccc3)c2O1` (stereo in doubt) [Compound 3, (2Z,2’Z)-1,1’-(Methylenebis(5,7-dihydroxy-2,2-dimethyl-2H-chromene-6,8-diyl))bis (3-phenylprop-2-en-1-one)]: the IC50 was 5.91 ± 0.19 µM in assay [1] (setting [5]) and over 50 µM in assay [2].
With `COc1ccc(C=CC(=O)c2c(O)c(Cc3c(O)c4c(c(C(=O)C=Cc5ccc(OC)cc5)c3O)OC(C)(C)C=C4)c(O)c3c2OC(C)(C)C=C3)cc1` (stereo in doubt) [Compound 4a, (2Z,2’Z)-1,1’-(Methylenebis(5,7-dihydroxy-2,2-dimethyl-2H-chromene-6,8-diyl))bis (3-(4-methoxyphenyl)prop-2-en-1-one)], the values for the IC50 in assay [1] and in assay [2] were 6.41 ± 0.33 µM and over 50 µM, respectively.
`CC1(C)C=Cc2c(O)c(Cc3c(O)c4c(c(C(=O)C=Cc5ccc(F)cc5)c3O)OC(C)(C)C=C4)c(O)c(C(=O)C=Cc3ccc(F)cc3)c2O1` (stereo in doubt) [Compound 4b, (2Z,2’Z)-1,1’-(Methylenebis(5,7-dihydroxy-2,2-dimethyl-2H-chromene-6,8-diyl))bis (3-(4-fluoro phenyl)prop-2-en-1-one)]: the values for the IC50 in assay [1] and in assay [2] were 8.71 ± 0.54 µM and over 50 µM, respectively.
`CC1(C)C=Cc2c(O)c(Cc3c(O)c4c(c(C(=O)C=Cc5ccsc5)c3O)OC(C)(C)C=C4)c(O)c(C(=O)C=Cc3ccsc3)c2O1` (stereo in doubt) [Compound 4d, (2Z,2’Z)-1,1’-(Methylenebis(5,7-dihydroxy-2,2-dimethyl-2H-chromene-6,8-diyl))bis (3-(thiophen-3-yl)prop-2-en-1-one)]: the IC50 was 0.22 ± 0.07 µM in assay [1] (setting [5]) and 23.59 ± 0.14 µM in assay [2]. Also, the “fold higher α-glucosidase inhibitory activity than 3” value in assay [1] came out at 26 fold. Besides, the “reversibility of α-glucosidase inhibition” value in assay [3] is “irreversibly; also recorded: irreversible α-glucosidase inhibitors”.
Turning to `CC1(C)C=Cc2c(O)c(Cc3c(O)c4c(c(C(=O)C=Cc5ccc(O)cc5)c3O)OC(C)(C)C=C4)c(O)c(C(=O)C=Cc3ccc(O)cc3)c2O1` (stereo in doubt) [Compound 5a, (2Z,2’Z)-1,1’-(Methylenebis(5,7-dihydroxy-2,2-dimethyl-2H-chromene-6,8-diyl))bis (3-(4-hydroxyphenyl)prop-2-en-1-one)], in assay [1], 0.51 ± 0.19 µM corresponded to half-maximal inhibition (IC50) and the “fold higher α-glucosidase inhibitory activity than 3” value was determined as 10 fold. The molecule also showed an IC50 in assay [2] of over 50 µM.
For the molecule `CC1(C)C=Cc2c(O)c(Cc3c(O)c4c(c(C(=O)C=Cc5ccc(O)cc5O)c3O)OC(C)(C)C=C4)c(O)c(C(=O)C=Cc3ccc(O)cc3O)c2O1` (stereo in doubt) [Compound 5b, (2Z,2’Z)-1,1’-(Methylenebis(5,7-dihydroxy-2,2-dimethyl-2H-chromene-6,8-diyl))bis (3-(2,4-dihydroxyphenyl)prop-2-en-1-one)], in assay [1], the IC50 stood at 0.24 ± 0.02 µM and the “fold higher α-glucosidase inhibitory activity than 5a” value is “two-fold”. In assay [2], this molecule showed an IC50 of over 50 µM.
On to `CC1(C)C=Cc2c(O)c(Cc3c(O)c4c(c(C(=O)C=Cc5cccc(O)c5O)c3O)OC(C)(C)C=C4)c(O)c(C(=O)C=Cc3cccc(O)c3O)c2O1` (stereo in doubt) [Compound 5c, (2Z,2’Z)-1,1’-(Methylenebis(5,7-dihydroxy-2,2-dimethyl-2H-chromene-6,8-diyl))bis (3-(2,3-dihydroxyphenyl)prop-2-en-1-one)], for which the IC50 in assay [1] is 1.07 ± 0.06 µM; in assay [2], over 50 µM.
As for `CC1(C)C=Cc2c(O)c(Cc3c(O)c4c(c(C(=O)C=Cc5ccc(O)c(O)c5O)c3O)OC(C)(C)C=C4)c(O)c(C(=O)C=Cc3ccc(O)c(O)c3O)c2O1` (stereo in doubt) [Compound 5d, (2Z,2’Z)-1,1’-(Methylenebis(5,7-dihydroxy-2,2-dimethyl-2H-chromene-6,8-diyl))bis (3-(2,3,4-trihydroxyphenyl)prop-2-en-1-one)], the half-inhibitory concentration (IC50) was 0.12 ± 0.02 µM in assay [1] and 26.19 ± 0.22 µM in assay [2]. Moreover, in assay [1], the “fold higher α-glucosidase inhibitory activity than 5a” value is listed as “four-fold”. Further, the “type of α-glucosidase inhibition” value in assay [3] (Lineweaver-Burk plot, 0, 0.2, 0.5 μM) is recorded as “mixed competitive α-glucosidase inhibitor; also recorded: mixed competitive inhibitory mode”. In assay [3], the “reversibility of α-glucosidase inhibition” value was “irreversibly; also recorded: irreversible α-glucosidase inhibitors”. Further, the glucose consumption entry in assay [4] (0.04 μM) is “significantly promote glucose consumption”; in assay [4] (0.2 μM, metformin 1 mM positive control), “significantly promote glucose consumption; also recorded: comparable to that of metformin”.
As for `CC(C)=CCc1c(O)cc(O)c(C(=O)/C=C/c2ccc(O)cc2)c1O` [Compound 1, Desmethylxanthohumol, reference compound], the IC50 in assay [1] (setting [5]) is 22.4 ± 3.1 µM; in assay [2], over 50 µM.
Take `CC1(C)C=Cc2c(O)cc(O)c(C(=O)/C=C/c3ccc(O)cc3)c2O1` [Compound 2, dehydrocyclodesmethylxanthohumol, reference compound]: the IC50 in assay [1] (setting [5]) was 9.74 ± 0.73 µM; in assay [2], over 50 µM.
Taken in the same sequence, the figures for `CC(=O)c1c(O)c(Cc2c(O)c3c(c(C(C)=O)c2O)OC(C)(C)C=C3)c(O)c2c1OC(C)(C)C=C2` [Compound 9, 1,1’-(Methylenebis(5,7-dihydroxy-2,2-dimethyl-2H-chromene-6,8-diyl))bis (ethan-1-one)] were 7.11 ± 0.05 µM and over 50 µM.
Regarding `COc1c2c(c(C(=O)/C=C\c3ccccc3)c(O)c1Cc1c(O)c(C(=O)/C=C\c3ccccc3)c3c(c1OC)C=CC(C)(C)O3)OC(C)(C)C=C2` [Compound 12, (2Z,2’Z)-1,1’-(Methylenebis(7-hydroxy-5-methoxy-2,2-dimethyl-2H-chromene-6,8-diyl))bis(3-phenylprop-2-en-1-one)], the figures for the half-maximal inhibitory concentration (IC50) in assay [1] and in assay [2] were 3.39 ± 0.13 µM and over 50 µM, respectively.
In the case of `COc1c2c(c(C(=O)/C=C\c3ccccc3)c(O)c1Cc1c(OC)c3c(c(C(=O)/C=C\c4ccccc4)c1OC)OC(C)(C)C=C3)OC(C)(C)C=C2` [Compound 13, (Z)-1-(6-((5,7-Dimethoxy-2,2-dimethyl-8-((Z)-3-phenylacryloyl)-2H-chromen-6-yl)methyl)-7-hydroxy-5-methoxy-2,2-dimethyl-2H-chromen-8-yl)-3-phenylprop-2-en-1-one], the IC50 in assay [1] was 0.37 ± 0.04 µM; in assay [2], over 50 µM. The “fold enhancement of α-glucosidase inhibitory activity compared to 12” value in assay [1] (compared with compound 12) was 10 fold.
As to “(2Z,2’Z)-1,1’-(Methylenebis(5,7-dihydroxy-2,2-dimethyl-2H-chromene-6,8-diyl))bis (3-(furan-3-yl)prop-2-en-1-one) [Compound 4c]”, the IC50 in assay [1] (setting [5]) was 1.84 ± 0.41 µM; in assay [2], 21.48 ± 0.09 µM. Besides, the “fold higher α-glucosidase inhibitory activity than 3” value in assay [1] is listed as “three-fold”.
